Data published in ChEMBL document CHEMBL1201862, “PubChem BioAssay data set” (2004).
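Grown in 96-well plates, cells were treated for 48 hours with each compound at five concentrations. Insufficient inhibition: endpoint recorded as highest concentration tested. GI50 marks 50% less growth.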 Activity calls are given as the source filed them. Rule as the data show it: active = GI50 up to about 1.1 µM and inactive = higher.

What was measured:
Experiment in all cases: inhibition of tumour cell growth, NCI panel, 48 h
A549 = test system: A549
EKVX = test system: EKVX
786-0 = test system: 786-0
NCI-H460 = test system: NCI-H460
SR = test system: SR
Hs-578T = test system: Hs-578T
HCT-15 = test system: HCT-15
SF-539 = test system: SF-539
SK-OV-3 = test system: SK-OV-3
RXF 393 = test system: RXF 393
SNB-19 = test system: SNB-19
OVCAR-8 = test system: OVCAR-8
ACHN = test system: ACHN
SW-620 = test system: SW-620
MDA-MB-435 = test system: MDA-MB-435
OVCAR-4 = test system: OVCAR-4
PC-3 = test system: PC-3
HT-29 = test system: HT-29
K562 = test system: K562
OVCAR-3 = test system: OVCAR-3
DU-145 = test system: DU-145
OVCAR-5 = test system: OVCAR-5
NCI-H23 = test system: NCI-H23
Malme-3M = test system: Malme-3M
COLO 205 = test system: COLO 205
CCRF-CEM = test system: CCRF-CEM
IGROV-1 = test system: IGROV-1
SF-268 = test system: SF-268
SNB-75 = test system: SNB-75
SK-MEL-2 = test system: SK-MEL-2
SK-MEL-28 = test system: SK-MEL-28
HCT-116 = test system: HCT-116
MDA-N = test system: MDA-N
NCI-H226 = test system: NCI-H226
KM12 = test system: KM12
HOP-62 = test system: HOP-62
TK-10 = test system: TK-10
M14 = test system: M14
MDA-MB-231 = test system: MDA-MB-231
SK-MEL-5 = test system: SK-MEL-5
UACC-257 = test system: UACC-257
HL-60 = test system: HL-60
NCI-H522 = test system: NCI-H522
U-251 = test system: U-251
HCC 2998 = test system: HCC 2998
UACC-62 = test system: UACC-62
SN12C = test system: SN12C
CAKI-1 = test system: CAKI-1
UO-31 = test system: UO-31
RPMI-8226 = test system: RPMI-8226
A498 = test system: A498
MOLT-4 = test system: MOLT-4
LOX IMVI = test system: LOX IMVI
NCI/ADR-RES = test system: NCI/ADR-RES
SF-295 = test system: SF-295
MCF7 = test system: MCF7
T47D = test system: T47D
BT-549 = test system: BT-549
HOP-92 = test system: HOP-92
M19-MEL = test system: M19-MEL
DMS-114 = test system: DMS-114
SNB-78 = test system: SNB-78
KM-20L2 = test system: KM-20L2
LXFL 529 = test system: LXFL 529

Cc1nn2c(=O)c([N+](=O)[O-])c(/C=C/c3ccccc3)nc2s1
GI50 (A549): 5.46 µM (inactive) | GI50 (EKVX): 4.61 µM (inactive) | GI50 (786-0): 4.52 µM (inactive) | GI50 (NCI-H460): 5.61 µM (inactive) | GI50 (SR): 2.43 µM (inactive) | GI50 (Hs-578T): 7.33 µM (inactive) | GI50 (HCT-15): 3.08 µM | GI50 (SF-539): 2.3 µM (inactive) | GI50 (SK-OV-3): 7.33 µM (inactive) | GI50 (RXF 393): 3.41 µM (inactive) | GI50 (SNB-19): 4.06 µM (inactive) | GI50 (OVCAR-8): 2.17 µM (inactive) | GI50 (ACHN): 5.32 µM (inactive) | GI50 (SW-620): 5.24 µM (inactive) | GI50 (MDA-MB-435): 2 µM (inactive) | GI50 (OVCAR-4): 10.5 µM (inactive) | GI50 (PC-3): 4.13 µM (inactive) | GI50 (HT-29): 3.04 µM (inactive) | GI50 (K562): 2.56 µM (inactive) | GI50 (OVCAR-3): 4.95 µM (inactive) | GI50 (DU-145): 3.74 µM (inactive) | GI50 (OVCAR-5): 4.68 µM (inactive) | GI50 (NCI-H23): 11 µM (inactive) | GI50 (Malme-3M): 13.3 µM (inactive) | GI50 (COLO 205): 5.14 µM (inactive) | GI50 (CCRF-CEM): 2.21 µM (inactive) | GI50 (IGROV-1): 5.51 µM (inactive) | GI50 (SF-268): 3.92 µM (inactive) | GI50 (SNB-75): 2.93 µM (inactive) | GI50 (SK-MEL-2): 3.1 µM (inactive) | GI50 (SK-MEL-28): 5.33 µM (inactive) | GI50 (HCT-116): 3.42 µM (inactive) | GI50 (MDA-N): 2.4 µM (inactive) | GI50 (NCI-H226): 3.07 µM (inactive) | GI50 (KM12): 3.13 µM (inactive) | GI50 (HOP-62): 5.43 µM (inactive) | GI50 (TK-10): 7.31 µM (inactive) | GI50 (M14): 6.81 µM (inactive) | GI50 (MDA-MB-231): 11.5 µM (inactive) | GI50 (SK-MEL-5): 3.69 µM (inactive) | GI50 (UACC-257): 8.57 µM (inactive) | GI50 (HL-60): 2.28 µM (inactive) | GI50 (NCI-H522): 3.3 µM (inactive) | GI50 (U-251): 2.42 µM (inactive) | GI50 (HCC 2998): 8.13 µM (inactive) | GI50 (UACC-62): 5.33 µM (inactive) | GI50 (SN12C): 5.27 µM (inactive) | GI50 (CAKI-1): 7.78 µM (inactive) | GI50 (UO-31): 5.83 µM (inactive) | GI50 (RPMI-8226): 2.43 µM (inactive) | GI50 (A498): 10.4 µM (inactive) | GI50 (MOLT-4): 2.98 µM (inactive) | GI50 (LOX IMVI): 1.57 µM (inactive) | GI50 (NCI/ADR-RES): 3.56 µM (inactive) | GI50 (SF-295): 17.3 µM (inactive) | GI50 (MCF7): 1.61 µM (inactive) | GI50 (T47D): 3.72 µM (inactive) | GI50 (BT-549): 2.37 µM (inactive) | GI50 (HOP-92): 8.28 µM (inactive)

Cc1cnc2cc(Cl)ccc2c1NCCN(CC(C)C)CC(C)C
GI50 (NCI-H460): > 100 µM (inactive) | GI50 (SR): > 100 µM (inactive) | GI50 (M19-MEL): > 100 µM (inactive) | GI50 (SF-539): > 100 µM (inactive) | GI50 (SK-OV-3): > 100 µM (inactive) | GI50 (SNB-19): > 10 µM (inactive) | GI50 (ACHN): > 100 µM (inactive) | GI50 (OVCAR-4): > 100 µM (inactive) | GI50 (HT-29): 8.3 µM (inactive) | GI50 (K562): 9.53 µM (inactive) | GI50 (OVCAR-3): 13.3 µM (inactive) | GI50 (OVCAR-5): > 100 µM (inactive) | GI50 (NCI-H23): 95.3 µM (inactive) | GI50 (COLO 205): > 100 µM (inactive) | GI50 (IGROV-1): > 100 µM (inactive) | GI50 (SF-268): > 100 µM (inactive) | GI50 (SNB-75): > 100 µM (inactive) | GI50 (SK-MEL-2): > 100 µM (inactive) | GI50 (SK-MEL-28): > 100 µM (inactive) | GI50 (HCT-116): 78.7 µM (inactive) | GI50 (DMS-114): 8.18 µM (inactive) | GI50 (KM12): > 100 µM (inactive) | GI50 (SNB-78): 41.1 µM (inactive) | GI50 (KM-20L2): 17.5 µM (inactive) | GI50 (HOP-62): 67.6 µM (inactive) | GI50 (M14): > 100 µM (inactive) | GI50 (UACC-257): > 100 µM (inactive) | GI50 (HL-60): 9.75 µM (inactive) | GI50 (NCI-H522): 13.1 µM (inactive) | GI50 (LXFL 529): 59.8 µM (inactive) | GI50 (U-251): > 100 µM (inactive) | GI50 (HCC 2998): > 100 µM (inactive) | GI50 (UACC-62): > 100 µM (inactive) | GI50 (UO-31): 9.23 µM (inactive) | GI50 (RPMI-8226): 13.6 µM (inactive) | GI50 (MOLT-4): > 100 µM (inactive) | GI50 (SF-295): 32.7 µM (inactive) | GI50 (HOP-92): 11.1 µM (inactive)

COc1ccc2nc3cc([N+](=O)[O-])ccc3c(NNc3ccc(Cl)cc3)c2c1
GI50 (A549): 17.2 µM (inactive) | GI50 (EKVX): 26.2 µM (inactive) | GI50 (786-0): 17.9 µM (inactive) | GI50 (NCI-H460): 2.88 µM (inactive) | GI50 (SR): 12.5 µM (inactive) | GI50 (Hs-578T): 29.9 µM (inactive) | GI50 (HCT-15): 45.5 µM | GI50 (SF-539): 37.8 µM (inactive) | GI50 (SK-OV-3): 80 µM (inactive) | GI50 (RXF 393): > 39.7 µM (inactive) | GI50 (SNB-19): 75.7 µM (inactive) | GI50 (OVCAR-8): 21.1 µM (inactive) | GI50 (ACHN): 32.9 µM (inactive) | GI50 (SW-620): 12.1 µM (inactive) | GI50 (MDA-MB-435): 26.1 µM (inactive) | GI50 (OVCAR-4): 38.5 µM (inactive) | GI50 (PC-3): 24.8 µM (inactive) | GI50 (HT-29): 15.2 µM (inactive) | GI50 (K562): 14.8 µM (inactive) | GI50 (OVCAR-3): 2.39 µM (inactive) | GI50 (DU-145): 38.9 µM (inactive) | GI50 (OVCAR-5): 2.31 µM (inactive) | GI50 (NCI-H23): 45.2 µM (inactive) | GI50 (Malme-3M): 43.2 µM (inactive) | GI50 (COLO 205): 12.6 µM (inactive) | GI50 (CCRF-CEM): 22 µM (inactive) | GI50 (IGROV-1): 2.94 µM (inactive) | GI50 (SF-268): 43.5 µM (inactive) | GI50 (SNB-75): 40.1 µM (inactive) | GI50 (SK-MEL-2): 18.7 µM (inactive) | GI50 (SK-MEL-28): 70 µM (inactive) | GI50 (HCT-116): 5.07 µM (inactive) | GI50 (MDA-N): 31.6 µM (inactive) | GI50 (NCI-H226): 1.1 µM (active) | GI50 (KM12): 26.1 µM (inactive) | GI50 (HOP-62): 21.8 µM (inactive) | GI50 (TK-10): 1.9 µM (inactive) | GI50 (M14): 34.7 µM (inactive) | GI50 (MDA-MB-231): 19.6 µM (inactive) | GI50 (SK-MEL-5): 14.7 µM (inactive) | GI50 (UACC-257): 1.01 µM (active) | GI50 (HL-60): 23.1 µM (inactive) | GI50 (NCI-H522): 22.6 µM (inactive) | GI50 (U-251): 21.7 µM (inactive) | GI50 (HCC 2998): 8.39 µM (inactive) | GI50 (UACC-62): 2.44 µM (inactive) | GI50 (SN12C): 33.1 µM (inactive) | GI50 (CAKI-1): 0.16 µM (active) | GI50 (UO-31): 34.3 µM (inactive) | GI50 (RPMI-8226): 22.8 µM (inactive) | GI50 (A498): 0.073 µM (active) | GI50 (MOLT-4): 26.1 µM (inactive) | GI50 (LOX IMVI): 26.9 µM (inactive) | GI50 (NCI/ADR-RES): 32.6 µM (inactive) | GI50 (SF-295): 56.8 µM (inactive) | GI50 (MCF7): 11.6 µM (inactive) | GI50 (T47D): 32.5 µM (inactive) | GI50 (BT-549): 29.9 µM (inactive) | GI50 (HOP-92): 20.9 µM (inactive)
